Assay results: patent US20210052600A1, “THERAPEUTIC AGENTS FOR STRESS URINARY INCONTINENCE AND INCOTINENCE OF FECES” (Takeda Pharmaceutical Company Limited, priority 2017, published 2021)

Tests used:
[1] = test system: urethral resistance; assay: Rat urethral resistance (LPP) measured by high speed infusion of saline into the bladder; assay type: in vivo; conditions: for LPP Post: 30 minutes after administration; for LPP Post / LPP Increase / LPP Pre: mean ± SEM; for LPP Increase: Post minus Pre; for LPP Pre: before administration
Text: The rats were anesthetized with isoflurane. Their spinal cord was transected at the T8-T9 (the eighth thoracic cord—the ninth thoracic cord) level. After opening of the bladder dome, two polyethylene tubes (PE-100) were inserted into the bladder. The incised portion of the bladder was closed with sutures, and the other incisions were also closed. The rats were placed in Bollman cages. The catheter for intravesical pressure measurement was connected to a pressure transducer, while the catheter for saline filling was connected to a syringe filled with Evans Blue-dyed saline. Change in intravesical pressure was recorded using the pressure transducer via an electric signal amplifier and an analog-to-digital converter. After recovery of the animals from anesthesia, the intravesical pressure measurement was started, and saline was infused at a speed of 0.1 mL/sec into the bladder using an infusion pump. The infusion was stopped when the leakage of the saline from the urethral orifice was observed. Immediately thereafter, the bladder was emptied by releasing the pressure. In this operation, the peak of recorded intravesical pressure during the saline infusion was used as LPP in this Example. This measurement was repeated, and the average LPP from the last three measurements was used as the LPP value of the trial. The mean from 2 such trials was used as a Pre value. 0.5% MC was used as the vehicle. […] The difference in LPP from the Pre value (increased amount of LPP) was calculated. Regarding change in LPP before and after drug administration, the differences between the mean values of the drug-treated and vehicle-treated groups were analyzed by the one-tailed Williams' test.

[2] = test system: urethral resistance increasing effect of Compound A′; assay: Influence of antagonists (SB 242084, methiothepin) on urethral resistance increasing effect of Compound A′ in rats; assay type: in vivo, rat; conditions: mean ± SEM; for LPP Post: 30 minutes after Compound A′; for LPP Increase: Post minus Pre; for LPP Pre: before administration
Protocol: Ninety female rats of SD strain were used. […] Isoflurane inhalation was added during the surgery, if necessary. In the experiment with intrathecal administration, the dura mater was exposed by laminectomy and then partially opened by incision, through which a catheter (PE-10) filled with saline was then implanted at the level of the L6-S1 site, followed by the closing of the incision. After opening of the abdomen, a catheter (PE-90) was inserted into the bladder. In order to secure reduced urethral resistance, unilateral nerve to iliococcygeus and pubococcygeus muscles was transected. For intraduodenal administration, another catheter (PE-50) was inserted into the duodenum in advance. The abdominal muscle and skin were each closed with sutures. Two (right and left) sites of abdominal skin near the diaphragm were cut to expose abdominal muscle. The bladder was emptied through the catheter, followed by the injection of 0.2 to 0.3 mL of Evans blue solution. Change in intravesical pressure was recorded using the bladder catheter via a pressure transducer, an electric signal amplifier, and an analog-to-digital converter. While change in intravesical pressure was recorded, the presence or absence of fluid leakage from the urethral orifice was observed under the electrical stimulation of the exposed abdominal muscle using an electrical stimulator and an isolator. […] The peak of the intravesical pressure during the stimulation of the abdominal muscle was measured, and the lowest pressure at which the fluid leakage was observed among the trials was defined as LPP for the electrical abdominal muscle stimulation method. In order to examine whether the urethral resistance increasing effect of Compound A′ is based on its agonistic potency on 5-HT2C receptors, SB 242084, methiothepin, or a vehicle was intravenously administered, and Compound A′ or a vehicle was intraduodenally administered 5 minutes later. SB 242084 was dissolved in a mixed solution of N,N-dimethylacetamide and polyethylene glycol 400 (1:1) and administered at 0.03 mg/0.5 mL/kg, 0.1 mg/0.5 mL/kg and 0.3 mg/0.5 mL/kg. Methiothepin was dissolved in saline and administered at 0.03 mg/0.5 mL/kg. 0.1 mg/0.5 mL/kg and 0.3 mg/0.5 mL/kg. Compound A′ was suspended in 0.5% MC and administered at 3 mg/mL/kg. LPP was measured again 30 minutes after Compound A′ administration. In order to examine where Compound A′ works in the body to increase urethral resistance, the blocking of the effect of Compound A′ was confirmed by blocking the functions of Compound A′ by giving methiothepin at a particular site in the body. Particularly, in the experiment with intrathecal administration, methiothepin or a vehicle was intrathecally administered, and Compound A′ or a vehicle was intraduodenally administered 5 minutes later. Methiothepin was dissolved in saline and 20 μL of the obtained solution was administered. Compound A′ was suspended in 0.5% MC and administered at 3 mg/mL/kg. LPP was measured again 30 minutes after Compound A′ administration.
Regarding change in LPP before and after drug administration, the differences between the mean values of the Compound A′-treated and vehicle-treated groups were analyzed by the Student's t test or the Welch's test. In order to analyze the influence of the antagonists on the effect of Compound A′, the differences between the mean values of the SB 242084- or methiothepin- and Compound A′-administered group and the vehicle- and Compound A′-administered group were analyzed by the one-tailed Williams' test.

[3] = test system: anus-closing function increasing effect of Compound A′; assay: Influence of SB 242084 on Compound A′-induced rat anus-closing function increasing effect (Anal LPP); assay type: in vivo; conditions: vehicle i.v. then Compound A′ 1 mg/kg i.v.; 5 minutes after Compound A′; n=9
Protocol: Eighteen female SD rats were used. After overnight fasting, rats were intraperitoneally administered with urethane for anesthesia, and isoflurane inhalation was added during surgery. The abdomen was incised to expose the rectum, and a small incision of the rectum was made. A polyethylene catheter (SP61, Natsume) was inserted into the rectum through the rectum incision, and the tip of the catheter was positioned around 5 mm from the anal orifice. The other end of the catheter was connected with a pressure transducer and an infusion pump via three-way stopcocks, and the change in pressure in the rectum was measured using the pressure transducer, an electric signal amplifier, and an analog-to-digital converter. For administrating drugs, a polyethylene catheter (SP45, Natsume) was inserted into the femoral vein after exposing the vein by small incision.
After recovery period from surgery, while saline was infused at a speed of 0.1 mL/sec into the rectum using an infusion pump, change in the measured pressure—was observed. […] The peak value of the pressure recorded in the rectum during the course of the procedures was defined as “an Anal LPP” in this Example. […] The Anal LPP was again measured in the same way 5 minutes after the administration with Compound A′. The difference in Anal LPP from the Pre value (increased amount of Anal LPP) was calculated. […]

[4] = test system: urethral resistance; assay: Urethral resistance (LPP) during intravesical pressure rise by electrical stimulation of rat abdominal muscle; assay type: in vivo; conditions: mean ± SEM; for LPP Post: 30 minutes after administration; for LPP Increase: Post minus Pre; for LPP Pre: before administration
Protocol: Fifty six female rats of Sprague-Dawley strain (hereinafter, referred to as “SD strain”) were used. The rats were anesthetized with urethane, and their spinal cord was transected at the T8-T9 (the eighth thoracic cord—the ninth thoracic cord) level for the elimination of reflex voiding. Isoflurane inhalation was added, if necessary. After opening of the abdomen, a catheter (PE-100) was inserted into the bladder. In order to secure reduced urethral resistance, unilateral nerve to iliococcygeus and pubococcygeus muscles was transected. For intraduodenal administration, another catheter (PE-50) was inserted into the duodenum in advance. The abdominal muscle and skin were each closed with sutures. Two (right and left) sites of abdominal skin near the diaphragm were cut to expose abdominal muscle. The bladder was emptied through the catheter, followed by the injection of 0.2 to 0.3 mL of 0.1% Evans blue solution. Change in intravesical pressure was recorded using the bladder catheter via a pressure transducer, an electric signal amplifier, and an analog-to-digital converter. While change in intravesical pressure was recorded, the presence or absence of fluid leakage from the urethral orifice was observed under the electrical stimulation of the exposed abdominal muscle using an electrical stimulator and an isolator. […] The peak of the intravesical pressure during the stimulation of the abdominal muscle was measured, and the lowest pressure at which the fluid leakage was observed among the trials was defined as leak point pressure (hereinafter, referred to as “LPP”) for the electrical abdominal muscle stimulation method and used as an index for urethral resistance. Each drug was evaluated for its effect by comparing LPP before drug administration with that after drug administration. […] The drugs were suspended in 0.5% methylcellulose solution (MC). […] LPP was measured again 30 minutes after administration. Regarding change in LPP before and after drug administration, the differences between the mean values of the drug-treated and vehicle groups were analyzed by the one-tailed Williams' test.

[5] = SB 242084 0 mg/kg i.v. (vehicle) + Compound A′ 3 mg/kg i.d.
[6] = methiothepin 0 μg intrathecal (vehicle) + Compound A′ 3 mg/kg i.d.
[7] = methiothepin 0 mg/kg i.v. (vehicle) + Compound A′ 3 mg/kg i.d.

Question: With CC(C)N(C)c1cnc2c(n1)OCCNC2.Cl [Compound A′, N-methyl-N-(1-methylethyl)-6,7,8,9-tetrahydropyrazino[2,3-f][1,4]oxazeine-3-amine] as the compound, how does the “LPP Post” value ([1]; 1.25 mg/kg p.o.) read?
Answer: 63.2 ± 4.7 cmH2O

Question: And the “LPP Increase” value ([1]; 1.25 mg/kg p.o.)?
Answer: 5.5 ± 3.0 cmH2O

Question: And the “LPP Pre” value ([1]; 1.25 mg/kg p.o.)?
Answer: 57.7 ± 3.6 cmH2O

Question: And the “LPP Post” value ([1]; 2.5 mg/kg p.o.)?
Answer: 70.2 ± 3.8 cmH2O

Question: And the “LPP Increase” value ([1]; 2.5 mg/kg p.o.)?
Answer: 10.9 ± 2.2 cmH2O

Question: What about the “LPP Pre” value ([1]; 2.5 mg/kg p.o.) of the same compound?
Answer: 59.2 ± 2.6 cmH2O

Question: What about the “LPP Post” value ([1]; 5 mg/kg p.o.) of the same compound?
Answer: 75.9 ± 3.3 cmH2O

Question: What about the “LPP Increase” value ([1]; 5 mg/kg p.o.) of the same compound?
Answer: 15.3 ± 3.7 cmH2O

Question: And the “LPP Pre” value ([1]; 5 mg/kg p.o.)?
Answer: 60.6 ± 3.6 cmH2O

Question: What about the “LPP Post” value ([1]; 10 mg/kg p.o.) of the same compound?
Answer: 78.4 ± 5.6 cmH2O

Question: What about the “LPP Increase” value ([1]; 10 mg/kg p.o.) of the same compound?
Answer: 21.7 ± 4.4 cmH2O

Question: And the “LPP Pre” value ([1]; 10 mg/kg p.o.)?
Answer: 56.7 ± 2.4 cmH2O

Question: And the “LPP Post” value ([1]; 20 mg/kg p.o.)?
Answer: 77.7 ± 3.5 cmH2O

Question: What about the “LPP Increase” value ([1]; 20 mg/kg p.o.) of the same compound?
Answer: 21.5 ± 3.4 cmH2O

Question: What about the “LPP Pre” value ([1]; 20 mg/kg p.o.) of the same compound?
Answer: 56.3 ± 5.1 cmH2O

Question: And the “LPP10, the dose that increases LPP by 10 cm H2O” value ([1]; oral administration, high speed saline infusion method)?
Answer: 1.6 mg/kg

Question: What about the “LPP Post” value [2, 5] of the same compound?
Answer: 72.4 ± 9.5 cmH2O

Question: And the “LPP Increase” value [2, 5]?
Answer: 26.4 ± 5.9 cmH2O

Question: What about the “LPP Pre” value [2, 5] of the same compound?
Answer: 46.0 ± 5.1 cmH2O

Question: And the “LPP Post” value [2, 6]?
Answer: 72.1 ± 5.7 cmH2O

Question: And the “LPP Increase” value [2, 6]?
Answer: 31.8 ± 6.2 cmH2O

Question: And the “LPP Pre” value [2, 6]?
Answer: 40.3 ± 5.6 cmH2O

Question: What about the “LPP Post” value [2, 7] of the same compound?
Answer: 61.0 ± 8.3 cmH2O

Question: And the “LPP Increase” value [2, 7]?
Answer: 15.1 ± 4.0 cmH2O

Question: And the “LPP Pre” value [2, 7]?
Answer: 45.9 ± 4.4 cmH2O

Question: What about the “Anal LPP Increase” value [3] of the same compound?
Answer: 9.2±3.0 cmH2O

Question: And the “LPP Post” value ([4]; 0.3 mg/kg i.d.)?
Answer: 55.0 ± 5.4 cmH2O

Question: What about the “LPP Increase” value ([4]; 0.3 mg/kg i.d.) of the same compound?
Answer: 7.8 ± 3.2 cmH2O

Question: And the “LPP Pre” value ([4]; 0.3 mg/kg i.d.)?
Answer: 47.2 ± 5.7 cmH2O

Question: What about the “LPP Post” value ([4]; 1 mg/kg i.d.) of the same compound?
Answer: 61.5 ± 4.9 cmH2O

Question: What about the “LPP Increase” value ([4]; 1 mg/kg i.d.) of the same compound?
Answer: 14.2 ± 2.7 cmH2O

Question: And the “LPP Pre” value ([4]; 1 mg/kg i.d.)?
Answer: 47.3 ± 5.0 cmH2O

Question: What about the “LPP Post” value ([4]; 3 mg/kg i.d.) of the same compound?
Answer: 77.3 ± 8.1 cmH2O

Question: And the “LPP Increase” value ([4]; 3 mg/kg i.d.)?
Answer: 29.7 ± 5.5 cmH2O

Question: What about the “LPP Pre” value ([4]; 3 mg/kg i.d.) of the same compound?
Answer: 47.6 ± 3.1 cmH2O
